According to US20100273876A1, “ANTIBACTERIAL FORMULATION COMPRISING A DIALKYL SULPHOSUCCINATE AND A CARBANILIDE ANTIBACTERIAL AGENT” (priority 2007, published 2010):

Columns and labels:
Assay in all cases: (S)DDA disc diffusion
Strep. mutans ATCC 25175 = format: cell-based, Streptococcus mutans
Protocol: The S. mutans was cultured and maintained on Wilkins-Chalgren Anaerobe Medium (agar and broth) at pH 7.0 supplemented with 1 g/L glucose; all cultures were incubated at 37° C. for 48 h in an atmosphere containing 5% CO2.
(§1) A sterile paper disc was impregnated with a sample of the test compound in a suitable solvent and 30 minutes allowed for the solvents to evaporate (where possible). The disc was then placed on an agar plate onto which the test micro-organism had been inoculated. The plate was then incubated under the conditions described above, following which it was examined visually for signs of microbial growth. If the test compound had antimicrobial activity, a circular zone of no growth would be obtained around the disc. The diameter of this zone of “inhibition” was measured using a ProtoCOL™ automated zone sizer (Synbiosis, Cambridge, UK). In general, a greater diameter and/or area of the zone of inhibition indicates a greater antimicrobial activity in the relevant test compound, although other factors such as test compound mobility through the agar gel may also influence the result.
(§2) Two test a compounds A and B were placed on a single paper disc and the above described DDA procedure repeated. An increase in diameter of the zone of inhibition, compared to the greater of the zone diameters for the two compounds individually, was taken to indicate potential antimicrobial synergy. In practical terms, an increase of greater than 5 mm could be treated as significant.
(§3) For the (S)DDA experiments; 200 μg of the DOS salts and/or the TCC were loaded onto each disc for Por. gingivalis experiments. For the Strep. mutans experiments, 200 μg of the TCC and 50 μg of DOSS were used on each disc. All the experiments were conducted in triplicate.

[1] = system: Clost. difficile ATCC 7000057; format: cell-based, Clostridium difficile; details: 200 μg per disc
Protocol: as §1
Two test a compounds A and B were placed on a single paper disc and the above described DDA procedure repeated. […]
The activities of DOSS and TCC were determined, using (S)DDAs, against a panel of further test micro-organisms, namely B. cereus ATCC 11778, Bact. fragilis ATCC 25285, Clost. difficile […] and E. faecalis ATCC 29212. […]

[2] = system: Por. gingivalis NCTC 11834; format: cell-based, Porphyromonas gingivalis; details: for DDA: 200 μg per disc
Protocol: The P. gingivalis strains were cultured and maintained on Wilkins-Chalgren Anaerobe Medium (agar and broth) at pH 7.0; all cultures were incubated anaerobically at 37° C. for 5-7 days.
as §1, §2, §3

C. jeikeium NCTC 11915 = format: cell-based, Corynebacterium jeikeium; details: for DDA: 200 μg per disc
Protocol: Several Corynebacterium test species were also used in this study, namely C. mucifaciens ATCC 700355, C. striatum NCTC 764, C. xerosis NCTC 11861 and C. jeikeium NCTC 11915. These Gram-positive pathogens are closely related to organisms (aerobic diphtheroids of the genus Corynebacterium) that cause body odour. C. mucifaciens and C. striatum were cultured and maintained on Mueller-Hinton Medium (agar and broth) and were incubated aerobically at 37° C. for 24 hours. C. xerosis and C. jeikeium were cultured and maintained on Mueller-Hinton Medium containing 5% (v/v) lysed horse blood (agar and broth) and were incubated aerobically at 37° C. for 72 hours. A sterile paper disc was impregnated with a sample of the test compound in a suitable solvent and 30 minutes allowed for the solvents to evaporate (where possible). The disc was then placed on an agar plate onto which the test micro-organism had been inoculated. The plate was then incubated under the conditions described above, following which it was examined visually for signs of microbial growth. If the test compound had antimicrobial activity, a circular zone of no growth would be obtained around the disc. The diameter of this zone of “inhibition” was measured using a ProtoCOL™ automated zone sizer (Synbiosis, Cambridge, UK). In general, a greater diameter and/or area of the zone of inhibition indicates a greater antimicrobial activity in the relevant test compound, although other factors such as test compound mobility through the agar gel may also influence the result. Two test a compounds A and B were placed on a single paper disc and the above described DDA procedure repeated. An increase in diameter of the zone of inhibition, compared to the greater of the zone diameters for the two compounds individually, was taken to indicate potential antimicrobial synergy. In practical terms, an increase of greater than 5 mm could be treated as significant. The activities of DOSS and TCC were determined, using (S)DDAs, against the test organisms C. mucifaciens ATCC 700355, C. striatum NCTC 764, C. xerosis NCTC 11861 and C. jeikeium NCTC 11915. 200 μg of the DOSS and/or the TCC were loaded onto each disc. All the experiments were conducted in triplicate.

P. granulosum PRP-043 = format: cell-based, Propionibacterium granulosum
Protocol: (§4) The propionibacteria were cultured and maintained on Wilkins-Chalgren Anaerobe Medium (agar and broth) at pH 6.0; all cultures were incubated anaerobically at 37° C. for 72 hours.
as §1, §2
(§5) Both the DDA and the SDDA test may be carried out using an agar gel supplemented with lipid and/or salt to simulate some of the major components present in human skin and to assess whether these substances might reduce the antimicrobial activity observed for the test compound. Performance under these conditions can provide a more reliable indication of activity on topical application. The supplements used in Examples 1, 11, 12 and 13 below were lipid (either Tween™ 80 at 1% v/v (Example 1) or triolein at 1% v/v (Examples 11, 12 and 13) and sodium chloride (100 mM).

P. granulosum PRP-055 = format: cell-based, Propionibacterium granulosum
Protocol: as §4, §1, §2, §5

P. granulosum PRP-021 = format: cell-based, Propionibacterium granulosum
Protocol: as §4, §1, §2, §5

[3] = 200 μg TCC or 50 μg DOSS per disc
[4] = P. granulosum PRP-043 (MLS), 200 μg TCC or 50 μg DOSS per disc
[5] = P. granulosum PRP-055 (resistance None), 200 μg TCC or 50 μg DOSS per disc
[6] = P. granulosum PRP-021 (MLS), 200 μg TCC or 50 μg DOSS per disc

O=C(Nc1ccc(Cl)cc1)Nc1ccc(Cl)c(Cl)c1 [TCC, N-(4-chlorophenyl)-N′-(3,4-dichlorophenyl) urea]
DDA (Strep. mutans ATCC 25175; [3]): 11.95 mm | DDA [1]: 0.0 mm | DDA [2]: 23.73 mm | DDA (C. jeikeium NCTC 11915): 0.0 mm | DDA (P. granulosum PRP-043; [4]): 8.84 mm | DDA (P. granulosum PRP-055; [5]): 17.16 mm | DDA (P. granulosum PRP-021; [6]): 0.00 mm

dioctyl sodium sulphosuccinate [DOSS]
SDDA area increase (Strep. mutans ATCC 25175): 42.61% | SDDA increase (Strep. mutans ATCC 25175): 4.68 mm | SDDA with TCC (Strep. mutans ATCC 25175; 50 μg DOSS + 200 μg TCC on one disc): 28.78 mm | DDA (Strep. mutans ATCC 25175; [3]): 24.1 mm | DDA (Strep. mutans ATCC 25175; 200 μg per disc): 40.25 mm | DDA [1]: 0.0 mm | SDDA area increase [2]: 54.34% | SDDA increase [2]: 12.39 mm | SDDA with TCC ([2]; 200 μg DOS salt + 200 μg TCC on one disc): 63.52 mm | DDA [2]: 51.13 mm | SDDA area increase (C. jeikeium NCTC 11915): ∞ | SDDA increase (C. jeikeium NCTC 11915): 13.81 mm | SDDA with TCC (C. jeikeium NCTC 11915; 200 μg DOSS + 200 μg TCC on one disc): 13.81 mm | DDA (C. jeikeium NCTC 11915): 0.0 mm | DDA (P. granulosum PRP-043; [4]): 8.94 mm | DDA (P. granulosum PRP-043; P. granulosum PRP-043, 200 μg per disc): 40.16 mm | DDA + salt (P. granulosum PRP-043; P. granulosum PRP-043, 200 μg per disc, sodium chloride 100 mM): 35.80 mm | DDA + lipid (P. granulosum PRP-043; P. granulosum PRP-043, 200 μg per disc, triolein 1% v/v): 35.18 mm | DDA (P. granulosum PRP-055; [5]): 10.07 mm | DDA (P. granulosum PRP-055; P. granulosum PRP-055, 200 μg per disc): 40.16 mm | DDA + salt (P. granulosum PRP-055; P. granulosum PRP-055, 200 μg per disc, sodium chloride 100 mM): 38.29 mm | DDA + lipid (P. granulosum PRP-055; P. granulosum PRP-055, 200 μg per disc, triolein 1% v/v): 36.42 mm | DDA (P. granulosum PRP-021; [6]): 0.00 mm | DDA (P. granulosum PRP-021; P. granulosum PRP-021, 200 μg per disc): 39.53 mm | DDA + salt (P. granulosum PRP-021; P. granulosum PRP-021, 200 μg per disc, sodium chloride 100 mM): 38.60 mm | DDA + lipid (P. granulosum PRP-021; P. granulosum PRP-021, 200 μg per disc, triolein 1% v/v): 42.02 mm
